Consider two molecules from publication PMC5695812, “Novel chloroacetamido compound CWR-J02 is an anti-inflammatory glutaredoxin-1 inhibitor” (PLoS ONE, 2017).

Series [1] has as its target T1, glutaredoxin-1 (Grx1) (Homo sapiens, UniProt P35754).
T1 construct: gene GLRX
T1 sequence (P35754 2-106): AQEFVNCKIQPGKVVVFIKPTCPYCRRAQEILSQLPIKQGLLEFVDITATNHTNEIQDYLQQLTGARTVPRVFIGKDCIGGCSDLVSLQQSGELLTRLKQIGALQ
Description: isolated enzyme spectrophotometric assay ([…] min pre-incubation, […] GSH); Kitz-Wilson kinetics; tandem MS of the Cys-22 adduct. Format: biochemical.

Series [2] deals with T2, glutaredoxin-1 (Grx1) (Mus musculus, UniProt Q9QUH0).
T2 construct: gene Glrx
T2 sequence (Q9QUH0 2-107): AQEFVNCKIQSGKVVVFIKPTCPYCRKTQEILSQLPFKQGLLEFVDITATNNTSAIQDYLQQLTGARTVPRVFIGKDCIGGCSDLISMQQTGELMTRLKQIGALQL
In words: Grx1 activity in lysates of treated BV2 murine microglia; click-biotin/streptavidin pull-down with MS and western blot. Format: cell-based. On the technique in general: A western blot detects proteins with antibodies after separation by electrophoresis.

The target of series [3] is Cys22 (UniProt position 23, FIKPTCPYCRR). The note with it: cited from earlier work.

What is called IC50 is the concentration at which inhibition is half-maximal. A low value points to greater potency in that assay. A word on the pKa: it is the negative logarithm of the acid dissociation constant.

`C#CCOc1cc(C(=O)NCc2ccc(NC(=O)CCl)cc2)cc(C(=O)OC)c1` [J02, methyl 3-((4-(2-chloroacetamido)benzyl)carbamoyl)-5-(prop-2-yn-1-yloxy) benzoate]: the half-maximal inhibitory concentration (IC50) in series [1] was 32 µM; in series [2], 37 µM.

Regarding “Glutaredoxin-1 (Grx1, thioltransferase) (Homo sapiens (inferred; species of the isolated enzyme not stated explicitly))”, the pKa in series [3] is 3.5.
